In article PMC12980303, “Development of a novel risk score reflecting the relative harm potential of synthetic cannabinoids based on prevalence estimates, well‐documented intoxication cases and basic pharmacological data” (Addiction (Abingdon, England), 2025):
Values joined by “and” are separate entries in the source; they are usually repeats but may differ in a detail not shown here. Identical values can stand only once. Like-named read-outs stand apart in the source and are kept apart here. Marks after values point to notes of the source that are not given here.

Columns and labels:
[1] = target: T1, hCB1 receptor (Homo sapiens, UniProt P21554); assay: competitive [3H]CP‐55940 radioligand binding assay (hCB1 receptor affinity); settings: [3H]CP‐55940 competition, hCB1 membrane preparations (HEK293‐EBNA), Cheng–Prusoff, 95% CI in brackets
Description: (§1) Receptor assays were performed on three different days and each concentration was tested in duplicate.
From the IC50, the respective Ki values were calculated using the Cheng–Prusoff equation [39].

[2] = target: T1, hCB1 receptor; assay: functional [35S]GTPγS hCB1 activation assay; assay type: biochemical; settings: for Emax: read-out: [35S]‐GTPγS assay Emax [%] (95% CI)
Description: as §1

[3] = risk score from prevalence in routine forensic samples and intoxication cases (G1, PSS, TSS); design: species or system human; settings: for G total (risk score): G1+G2+G3, higher value = greater toxicological risk; for G2: mean Poison Severity Score (PSS) of all intoxications with the SCRA; for G3: mean Toxicological Significance Score (TSS) of all intoxications with the SCRA; for G1: proportion in intoxication cases relative to prevalence in routine serum/blood and urine samples per quarter, 2013–2021, >1 over‐represented in intoxications
Source text: Therefore, higher values indicate substances with a higher risk. […] To take into account the severity of symptoms and the contribution of the specific NPS, two further summands were introduced. The first is based on the PSS, the second on the TSS. Again, higher values were associated with more severe symptoms and a stronger role of the NPS in causing the symptoms.
The risk score is composed of three components (parts G1, G2 and G3) and was designed as follows: (1) Gx=G1x+G2x+G3x,
Equation 2 takes into consideration several components: the number of intoxications with SCRA x in quarter k over the total number of intoxications of all investigated SCRAs in the same quarter; the number of serum/blood samples positive for SCRA x over the total number of serum/blood samples positive for all SCRAs plus the number of urine samples positive for SCRA x over the total number of urine samples positive for all SCRAs (this is divided by two to account for the two different sample types); and the number of quarters in which the SCRA x was prevalent. (2) G1x=∑k=1gak/bk/ck/dk+ek/fk/2/h+i
Consequently, equation 2 was mathematically rearranged. To further simplify the equation and reduce the formula signs, in equation 3 the following simplifications were taken: a/b=ai , c/d=as and e/f=au .
The sum of these quotients was divided by the number of all prevalent quarters (q p ). Prevalent quarters were defined as quarters in which on average the substance was detected in more than 5% of the positive serum and urine samples. If a poisoning occurred in a quarter in which the substance was not prevalent, the number of these quarters was added (q i ). This part of the score has similarities with an OR [42]. If the proportion of routine samples in a given quarter in which an intoxication with the respective substance occurred was zero (a s + a u = 0), a value of 0.01 was used for that quarter in the calculation of the quotient to avoid division by zero.
For part G2, the severity of the intoxication caused by the respective SCRA x was assessed on the basis of reported symptoms and follow‐up information using the PSS [20]. The PSS classifies the intoxication severity into five levels: (0) no, (1) mild, (2) moderate, (3) severe, and (4) fatal intoxication. […] For this purpose, the mean value of the PSS of all intoxications with the respective SCRA x was calculated ( G2x) .
For part G3, the involvement of the SCRA in the respective intoxications was assessed. This was evaluated on the basis of the TSS [21]. Elliott et al. developed the TSS to assess and classify the contribution of NPS in fatalities. In the present study, the TSS was determined to weigh the involvement of the investigated SCRA in the intoxication and the contribution of the SCRA to the observed symptoms. To determine the TSS value, factors such as the determined concentration of the SCRA, the presence of other recreational drugs or medicinal drugs, the general health of the patient and the consumption circumstances need to be considered. […] In cases with more than one drug detected, a TSS of 3 was only assigned where other compounds were present at concentrations below the range in which relevant effects are to be expected.
For the risk score, the mean value of the TSS of all intoxications with substance x was calculated ( G3x) . Analogous to the value of G2x , the value of G3x can theoretically be between 1 and 3. With a value of ‘1’, substance x was not mainly responsible for the symptoms in all of the intoxications (low level of significance), and with a value of ‘3’, it was the main cause in every poisoning in which it was detected.

[4] = occurrence of SCRAs in intoxication samples of the prospective study; design: species or system human; settings: 2013 to 2021; for No. of intoxications: 139 intoxication samples of the prospective study; for Percentage in %: proportion of 139 intoxications in which the substance was detected
Source text: For this study, the 10 SCRAs (AB‐[…], ADB‐[…], AB‐FUBINACA, FUB‐AMB, Cumyl‐PEGACLONE, MDMB‐4en‐PINACA, MDMB‐CHMICA, 5F‐MDMB‐PICA, 5F‐ADB and 5F‐PB‐22) which were most frequently detected in intoxications in a prospective observational study during the time period of 2013 to 2021 were selected (see Table 1). Additionally, JWH‐210, a model compound representative of the early SCRAs, along with two substances prevalent in screenings during years 2019/2020 (5F‐Cumyl‐PEGACLONE and 4F‐MDMB‐BICA), were included in this study (see Tables S2–S7). […] JWH‐018 was also included as a reference compound because of its historical use in this capacity. Including both reference compounds facilitates direct comparison with previously published data, thereby enhancing the relevance and interpretability of the results obtained in the present study. Information on the origin of the test and reference compounds and all chemicals used in this study can be found in Table S1.
The data on intoxication cases used for the development of this risk score were obtained from a prospective study. This study included patients who were treated in an emergency department room following the consumption of an NPS. Clinical symptoms and follow‐up information were documented using a structured questionnaire completed by the attending physicians. The methodology has been previously published. Residual serum (obtained from venous blood) and urine samples, accompanied by the completed questionnaires, were sent to the Poisons Information Center Freiburg for further analysis. The toxicological analyses of serum and urine samples were conducted at the Institute of Forensic Medicine Freiburg. No data was available on previous consumption patterns or potential development of tolerance after continued misuse. The study was conducted in accordance with the Declaration of Helsinki and approved by the regional ethics committee of the University of Freiburg (no. 235/13_130683). The intoxication cases included in this study are those in which SCRA use was confirmed by liquid chromatography tandem mass spectrometry (LC–MS/MS).

[5] = target: T1, hCB1 receptor
[6] = read-out: βarr2 assay EC50 [nM] (95% CI); ref Janssens et al. [43]; cited from earlier work
[7] = relative to CP‐55940; originally normalised to JWH‐018, corrected with factor 0.3268; ref Janssens et al. [43]; cited from earlier work
[8] = read-out: βarr2 assay EC50 [nM] (95% CI); ref Noble et al. [30]; cited from earlier work
[9] = relative to CP‐55940; originally normalised to JWH‐018, corrected with factor 0.3268; ref Noble et al. [30]; cited from earlier work
[10] = relative to CP‐55940; ref Grafinger et al. [27]; cited from earlier work

T1 sequence (P21554 whole entry): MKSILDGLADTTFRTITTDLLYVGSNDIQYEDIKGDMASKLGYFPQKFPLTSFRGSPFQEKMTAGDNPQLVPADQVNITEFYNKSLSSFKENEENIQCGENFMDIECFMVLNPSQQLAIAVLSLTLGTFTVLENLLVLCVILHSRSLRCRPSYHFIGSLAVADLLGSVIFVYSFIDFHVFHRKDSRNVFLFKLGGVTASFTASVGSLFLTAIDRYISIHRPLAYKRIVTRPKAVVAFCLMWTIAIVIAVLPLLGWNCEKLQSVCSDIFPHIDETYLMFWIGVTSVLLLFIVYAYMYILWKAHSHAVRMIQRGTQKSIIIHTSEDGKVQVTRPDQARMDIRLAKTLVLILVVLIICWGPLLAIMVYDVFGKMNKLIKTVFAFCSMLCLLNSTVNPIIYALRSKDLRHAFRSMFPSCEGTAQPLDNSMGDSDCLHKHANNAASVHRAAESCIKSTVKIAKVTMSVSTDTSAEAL

Compound | Ki ([1]; Ki [nM] (95% CI)) | EC50 [2] | Emax [2] | G total (risk score) [3] | G2 [3] | G3 [3] | G1 [3] | No. of intoxications [4] | Percentage in % [4] | also measured
CC(C)(c1ccccc1)n1ccc2c(c1=O)c1ccccc1n2CCCCCF [5F‐Cumyl‐PEGACLONE] | 0.0991 nM | 1.64 nM | 105% | 3.1 | 2.0 | 1.0 | 0.11 | 1 | 0.72% | EC50 [5, 6]: 0.58 nM; βarr2 assay Emax [%] (95% CI) [5, 7]: 1089 (988.4–1190) ^a %
COC(=O)C(NC(=O)c1nn(CCCCCF)c2ccccc12)C(C)(C)C (centres unmarked) [5F‐ADB] | 0.0993 nM | 1.95 nM | 103% | 6.9 | 1.9 | 2.6 | 2.5 | 33 | 24% | EC50 ([5]; ref Wouters et al. [29]; read-out: βarr2 assay EC50 [nM] (95% CI); cited from earlier work): 0.84 nM
COC(=O)C(NC(=O)c1cn(CCCCCF)c2ccccc12)C(C)(C)C (centres unmarked) [5F‐MDMB‐PICA] | 0.321 nM | 7.88 nM | 112% | 8.1 | 2.1 | 2.8 | 3.2 | 15 | 11% | EC50 [5, 8]: 3.26 nM; βarr2 assay Emax [%] (95% CI) [5, 9]: 1014 (951.7–1075) ^a %
C=CCCCn1nc(C(=O)NC(C(=O)OC)C(C)(C)C)c2ccccc21 (centres unmarked) [MDMB‐4en‐PINACA] | – | 13.4 nM | 114% | 6.8 | 2.2 | 3.0 | 1.6 | 6 | 4.3% | EC50 ([5]; ref Grafinger et al. [27]; read-out: βarr2 assay EC50 [nM] (95% CI); cited from earlier work): 1.88 nM; βarr2 assay Emax [%] (95% CI) [5, 10]: 679 (623–730) %
CCCCCn1cc(C(=O)c2ccc(CC)c3ccccc23)c2ccccc21 [JWH‐210] | – | 41.9 nM | 93.4% | 5.7 | 1.6 | 2.7 | 1.4 | 3 | 2.2% | Ki ([1]; read-out: Ki [nM] (95% CI)): 1.43 nM; EC50 ([5]; read-out: βarr2 assay EC50 [nM] (95% CI); ref Cannaert et al. [45]; cited from earlier work): 25.3 nM; βarr2 assay Emax [%] (95% CI) ([5]; relative to CP‐55940; originally normalised to JWH‐018, corrected with factor 0.3268; ref Cannaert et al. [45]; cited from earlier work): 714.2 (672.3–759.5) ^a ^, ^i %
CCCCCn1c2ccccc2c2c(=O)n(C(C)(C)c3ccccc3)ccc21 [Cumyl‐PEGACLONE] | 0.242 nM | 12.4 nM | 117% | 4.5 | 2.0 | 2.2 | 0.32 | 5 | 3.6% | EC50 [5, 6]: 0.23 nM; βarr2 assay Emax [%] (95% CI) [5, 7]: 1053 (960.8–1148) ^a %
CC(C)C(NC(=O)c1nn(Cc2ccc(F)cc2)c2ccccc12)C(N)=O (centres unmarked) [AB‐FUBINACA] | 0.385 nM | 17.5 nM | 114% | – | – | – | – | – | – | EC50 [5, 8]: 15.6 nM; βarr2 assay Emax [%] (95% CI) [5, 9]: 990.5 (922.9–1059) ^a %
CCCCCn1cc(C(=O)c2cccc3ccccc23)c2ccccc21 [JWH‐018, reference compound] | 2.86 nM | 38.6 nM | 118% | – | – | – | – | – | – | βarr2 assay Emax [%] (95% CI) [5, 10]: 306 ^b (281–333) %
COC(=O)C(NC(=O)c1cn(CC2CCCCC2)c2ccccc12)C(C)(C)C (centres unmarked) [MDMB‐CHMICA] | 0.935 nM | 11.8 nM | 103% | 5.7 | 2.2 | 2.8 | 0.73 | 31 | 22% | EC50 ([5]; read-out: βarr2 assay EC50 [nM] (95% CI); ref Wouters et al. [31]; cited from earlier work): 2.2 nM; βarr2 assay Emax [%] (95% CI) ([5]; relative to CP‐55940; ref Wouters et al. [31]; cited from earlier work): 885.7 (818.5–958.0) %
CC(C)(C)C(NC(=O)c1nn(CC2CCCCC2)c2ccccc12)C(N)=O (centres unmarked) | 0.0229 nM and 0.0231 nM | 0.467 nM | 124% | 7.1 | 2.1 | 2.7 | 2.3 | 18 | 13% | EC50 ([5]; read-out: βarr2 assay EC50 [nM] (95% CI); ref Wouters et al. [29]; cited from earlier work): 0.34 nM; βarr2 assay Emax [%] (95% CI) ([5]; relative to CP‐55940; originally normalised to JWH‐018, corrected with factor 0.3268; ref Wouters et al. [29]; cited from earlier work): 803.6 ^a (724.3–921.4) %
CCCCCCC(C)(C)c1ccc([C@@H]2C[C@H](O)CC[C@H]2CCCO)c(O)c1 [CP‐55940, reference compound] | – | – | 96.9% | – | – | – | – | – | – | –
COC(=O)C(NC(=O)c1cn(CCCCF)c2ccccc12)C(C)(C)C (centres unmarked) [4F‐MDMB‐BICA] | 5.67 nM | 137 nM | 104% | 5.5 | 2.0 | 3.0 | 0.48 | 2 | 1.4% | EC50 ([5]; read-out: βarr2 assay EC50 [nM] (95% CI); ref Cannaert et al. [44]; cited from earlier work): 121 nM; βarr2 assay Emax [%] (95% CI) ([5]; relative to CP‐55940; originally normalised to JWH‐018, corrected with factor 0.3268; ref Cannaert et al. [44]; cited from earlier work): 774.2 (685.4–911.9) ^a %
